Holding throughout (assay type): biochemical
The target in test [1] is T1, human MAOB (Homo sapiens, UniProt P27338).
T1 construct: made in house; host or cells: Pichia pastoris
T1 sequence (P27338 1-520): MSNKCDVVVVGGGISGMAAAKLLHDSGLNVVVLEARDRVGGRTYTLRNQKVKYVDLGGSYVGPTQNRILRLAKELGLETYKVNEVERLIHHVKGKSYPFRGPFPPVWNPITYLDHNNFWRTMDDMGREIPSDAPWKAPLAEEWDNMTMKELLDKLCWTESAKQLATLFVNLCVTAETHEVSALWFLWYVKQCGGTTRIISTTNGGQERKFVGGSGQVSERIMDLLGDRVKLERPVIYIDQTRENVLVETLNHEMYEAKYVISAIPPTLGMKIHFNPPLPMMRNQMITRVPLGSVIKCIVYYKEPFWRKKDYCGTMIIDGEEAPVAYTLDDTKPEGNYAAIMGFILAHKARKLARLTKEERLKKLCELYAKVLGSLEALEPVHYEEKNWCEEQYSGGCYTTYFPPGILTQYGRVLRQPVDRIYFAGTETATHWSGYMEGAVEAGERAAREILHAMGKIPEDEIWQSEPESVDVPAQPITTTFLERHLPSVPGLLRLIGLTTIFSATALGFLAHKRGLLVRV
Kind of test: Purified MAOB, Amplex Red/horseradish peroxidase coupled assay. Conditions: for IC50 / IC50 Purified MAOB: 10 nM MAOB, 1 mM benzylamine. As for the experimental part: IC50 values on human MAOA and human MAOB were determined using the Amplex Red/horseradish peroxidase coupled assay. […] Measurements were performed using a ClarioStar plate reader (excitation 572 nm and emission 583 nm) (BMG Labtech). IC50 values were obtained by fitting the percentage of inhibition versus log(inhibitor concentration) using GraphPad software 7.0. The covalent modification of the flavin upon the reaction with the propargylamine-containing inhibitors was monitored spectrophotometrically using a diode array UV/visible spectrophotometer (Agilent Technologies). […] The cofactor covalent modification was monitored over time following the shift of the enzyme-bound flavin (peaks at 370 and 456 nm) to 410 nm (ε410 = 23,500 M^–1 cm^–1) (Figure S10).

Test [2] addresses T2, human NOX5 (Homo sapiens, UniProt Q96PH1).
T2 construct: expressed in transfected cells; host or cells: HEK293 F cells, transient transfection (pEG BacMam vector); isolated membranes
T2 sequence (Q96PH1 1-719 isoform Q96PH1-4): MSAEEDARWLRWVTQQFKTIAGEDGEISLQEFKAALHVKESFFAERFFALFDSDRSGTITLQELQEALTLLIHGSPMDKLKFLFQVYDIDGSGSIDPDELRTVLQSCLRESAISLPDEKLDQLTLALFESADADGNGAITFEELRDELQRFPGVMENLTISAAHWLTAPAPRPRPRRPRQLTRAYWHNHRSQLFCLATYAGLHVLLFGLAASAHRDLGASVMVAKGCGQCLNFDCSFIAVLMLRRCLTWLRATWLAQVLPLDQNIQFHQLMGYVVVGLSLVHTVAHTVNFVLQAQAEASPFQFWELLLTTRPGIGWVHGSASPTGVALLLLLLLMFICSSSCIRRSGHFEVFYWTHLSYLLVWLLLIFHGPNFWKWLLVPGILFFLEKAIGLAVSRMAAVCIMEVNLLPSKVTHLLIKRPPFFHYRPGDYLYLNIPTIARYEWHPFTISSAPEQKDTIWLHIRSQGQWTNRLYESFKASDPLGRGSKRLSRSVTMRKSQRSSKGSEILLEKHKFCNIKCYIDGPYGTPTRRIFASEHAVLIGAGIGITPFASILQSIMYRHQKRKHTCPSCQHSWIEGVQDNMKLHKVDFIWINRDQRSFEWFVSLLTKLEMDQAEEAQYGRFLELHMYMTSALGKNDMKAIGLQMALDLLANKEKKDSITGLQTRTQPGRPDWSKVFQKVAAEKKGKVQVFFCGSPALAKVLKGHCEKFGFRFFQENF
Nature of the test: Human NOX5 isolated membranes, Amplex Red/horseradish peroxidase coupled assay. To be noted: membrane-embedded, 40 μM NADPH; for IC50: read-out: IC50 on human NOXs, NOX5 (AMPLEX RED). As to the method:
(§1) Activity assays for IC50 determinations were performed as previously described[40],[42] with modifications for covalent inhibitors. […] The estimated final protein concentrations based on the heme’s absorbance (ε414 nm = 131,000 M^–1 cm^–1) were 10–20 nM. Compounds were incubated for 1 h at 25 °C at varying concentrations, and reactions were initiated with 40 μM NADPH. Fluorescence was measured using a ClarioStar plate reader (excitation 572 nm/emission 583 nm).

Test [3] has as its target T3, human NOX4 (Homo sapiens, UniProt Q9NPH5).
T3 construct: expressed in transfected cells; host or cells: HEK293 F cells, transient transfection (pTT22 and pYD7 vectors); isolated membranes
T3 sequence (Q9NPH5 1-578): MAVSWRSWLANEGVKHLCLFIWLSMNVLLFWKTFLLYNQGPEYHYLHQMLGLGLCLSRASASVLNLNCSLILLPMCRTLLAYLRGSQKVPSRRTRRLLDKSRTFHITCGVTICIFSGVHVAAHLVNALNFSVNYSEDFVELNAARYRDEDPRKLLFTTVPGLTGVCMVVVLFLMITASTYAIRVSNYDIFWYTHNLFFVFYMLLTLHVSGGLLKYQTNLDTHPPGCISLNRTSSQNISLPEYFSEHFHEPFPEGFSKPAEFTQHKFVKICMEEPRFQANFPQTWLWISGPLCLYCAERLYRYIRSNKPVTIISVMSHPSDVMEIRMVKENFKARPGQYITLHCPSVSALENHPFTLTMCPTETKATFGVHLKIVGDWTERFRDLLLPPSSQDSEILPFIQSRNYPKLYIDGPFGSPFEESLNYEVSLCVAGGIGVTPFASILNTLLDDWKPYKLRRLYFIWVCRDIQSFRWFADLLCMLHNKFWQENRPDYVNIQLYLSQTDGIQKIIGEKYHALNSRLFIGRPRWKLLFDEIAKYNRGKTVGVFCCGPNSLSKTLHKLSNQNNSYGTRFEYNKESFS
T3 sequence (P13498 1-195 partner): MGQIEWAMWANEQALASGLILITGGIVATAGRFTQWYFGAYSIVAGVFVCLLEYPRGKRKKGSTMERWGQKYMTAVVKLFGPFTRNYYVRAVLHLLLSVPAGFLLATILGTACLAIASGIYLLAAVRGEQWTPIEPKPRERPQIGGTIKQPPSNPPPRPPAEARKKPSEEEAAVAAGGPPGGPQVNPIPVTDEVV
Nature of the test: Human NOX4 isolated membranes, Amplex Red/horseradish peroxidase coupled assay. To be noted: membrane-embedded; 40 μM NADPH; read-out: IC50 on human NOXs, NOX4 (AMPLEX RED). As for the experimental part:
as §1

Entries after “also recorded” stand apart in the source; their conditions may differ.

Turning to `CCCNC(=O)c1ccc(Cn2nnc3c(Sc4nc5ccccc5o4)ncnc32)cc1` [Compound 8a, (4-((7-Benzo[d]oxazol-2-yl-thio)-3H-[1,2,3]triazole[4,5-d]pyrimidin-3-yl)methyl)-N-(propyl)benzamide], the IC50 in test [1] is > 100 µM; in test [2], 6.5 ± 0.6 µM; in test [3] it was 21.8 ± 1.1 µM. Moreover, the “IC50 Purified MAOB” value in test [1] is “ineffective; also recorded: Not detected”.

In the case of `C#CCN(C)Cc1ccc(Cn2nnc3c(Sc4nc5ccccc5o4)ncnc32)cc1` [Compound 9a, N-(4-((7-(Benzo[d]oxazol-2-ylthio)-3H-[1,2,3]triazolo[4,5-d]pyrimidin-3-yl)methyl)benzyl)-N-methylprop-2-yn-1-amine], in test [1], the “MAOB inhibition relative to rasagiline (weaker)” value was found to be 10 fold. Besides, the IC50 in test [1] was 0.182 ± 0.1 µM; in test [2], 5.2 ± 0.1 µM; in test [3], 42 ± 16 µM.

As to `C#CCNC(=O)c1ccc(Cn2nnc3c(Sc4nc5ccccc5o4)ncnc32)cc1` [Compound 8b, (4-((7-Benzo[d]oxazol-2-yl-thio)-3H-[1,2,3]triazole[4,5-d]pyrimidin-3-yl)methyl)-N-(prop-2-in-1-yl)benzamide], in test [1], the “IC50 Purified MAOB” value was “Inhibition^b”. Also, the “IC50 on human NOXs, NOX5 (AMPLEX RED)” value in test [2] is “inactive”. Moreover, the IC50 is > 100 µM in test [2] and 57.9 ± 7 µM in test [3].

In general, IC50 refers to the midpoint of a concentration-inhibition curve.

The values are drawn from publication PMC11956017, “Design of Benzyl-triazolopyrimidine-Based NADPH Oxidase Inhibitors Leads to the Discovery of a Potent Dual Covalent NOX2/MAOB Inhibitor” (Journal of Medicinal Chemistry, 2025).
